Values after ≈ are worked out from the molar mass of the structure shown.
How the values were obtained:
[1] = tested on: Escherichia coli (ATCC#25922); conditions: cited from earlier work
[2] = tested on: Staphylococcus aureus (ATCC #29213); test: MIC determination in MICROPLATE testing plates, saline vs GELRITE inoculant; format: cell-based; conditions: ATCC29213, 18 h, SF-P plates with resazurin, 35° C.
Procedure: All three antimicrobials were obtained from Sigma. […] Kanamycin and tetracycline were dissolved in sterile water.

[3] = tested on: Staphylococcus aureus (ATCC #29213); conditions: cited from earlier work
E. coli MG1655 = test: PM kinetic profiles of antimicrobials, S-O-R scoring and dendrogram; format: cell-based, Escherichia coli; conditions: 1× level of each antimicrobial, 7 PMs, 48 hours
HL-60 cells [4] = test: Effect of 1 mM chloramphenicol on HL-60 energy utilization; format: cell-based, human; conditions: 1 mM chloramphenicol
Procedure: In this Example, methods for testing antimicrobial-induced modulation in growth of a cell are described. The antimicrobial selected for this Example is chloramphenicol. However, this application is not intended to be limited to the use of chloramphenicol, translation inhibitors or even antibiotics. HL-60 cells were cultured as described in Example 27.
After washing, HL-60 cells were resuspended in DME-R. An aliquot of the cell suspension was counted by trypan blue exclusion and the cell density was adjusted to 6.67×10^5[…]. Fifty μL of DME-R containing 3 mM chloramphenicol were added to each well of the appropriate number of half area, 96-well plates, followed by 25 μL of the appropriate dilution of each test energy source. Stocks of 133 mM of each test chemical were prepared in tissue culture grade water, sterile filtered, and dilutions were prepared in a master plate so that, upon dilution in a total volume of 150 μL, the final concentrations would be 0.033 to 20 mM. Negative control wells received 25 μL of tissue culture grade water. The cells were plated at a volume of 75 μL/well, giving a final cell density of 5×10^4/well. For each plate containing energy sources and cells, a second, control plate containing only energy sources was prepared. Plates were incubated at 5% CO2, 90-100% humidity, and 37° C. for 24 hours prior to addition of the MTS/MPMS colorimetric reagent (7.5 μL/well). The color formed in each well 24 hours after addition of the colorimetric reagent, was measured with a plate reader at 490 nm with a reference wavelength of 650 nm. OD values from the control plate were subtracted from the OD values obtained with cells prior to normalizing the data to % negative control.
Data shown in Table 25 are expressed as percent negative control without chloramphenicol. […] Chloramphenicol clearly has a different effect on the cells than citrate shown in Example 33.

HL-60 cells [5] = test: Chloramphenicol IC50 for cells in complete medium; format: cell-based; conditions: Homo sapiens, read-out: IC50 concentration
E. coli (MG1655) = test: Sensitivity in ES1, ES2, ES3 MICROPLATE panels in the presence of vancomycin or sulfamethoxazole (synergy/antagonism); format: cell-based, Escherichia coli
[6] = tested on: vancomycin-intermediate S. aureus isolates (VISA); conditions: cited from earlier work
A549 cells = test: Glucose utilization by A549 cells in response to insulin, cross-titration; format: cell-based; conditions: cross titration format (FIG. 12)
Procedure: Briefly, A549 cells were suspended in RPMI-salts+RPMI-vitamins+1× Pen/Strep without amino acids at 400,000 cells/mL and dispensed in 50 uL to wells containing glucose to achieve the indicated final glucose concentrations. Insulin was then added to achieve the indicated final insulin concentrations. The cells were adapted to glucose by maintaining the cells for 2 days at 37° C. under 5% CO2-95% air (pre-incubation phase), before a redox dye mix was added. Color development was measured after maintaining the cells for an additional 5 hr at 37° C. under 5% CO2-95% air (incubation phase).

## CC1(C)S[C@@H]2[C@H](NC(=O)[C@H](N)c3ccccc3)C(=O)N2[C@H]1C(=O)O [Ampicillin, ampicillin]
[1]
  MIC, NCCLS Expected Result: 2 to 8 µg/mL
[2]; diluent GELRITE (0.4%)
  MIC: 1 to 2 µg/mL (≈ 2.86 to 5.72 µM)
[2]; diluent Saline
  MIC: 1 to 4 µg/mL (≈ 2.86 to 11.4 µM)
[3]
  MIC, NCCLS Expected Results: 0.25 to 1 µg/mL
E. coli MG1655
  position in dendrogram of PM response profiles (FIG. 9): cluster

## O=C(N[C@H](CO)[C@H](O)c1ccc([N+](=O)[O-])cc1)C(Cl)Cl [chloramphenicol]
HL-60 cells [4]
  effect on signal compared to untreated cells: severe reduction in signal in almost all conditions
HL-60 cells [5]
  IC50: 1000 µM
E. coli MG1655
  position in dendrogram of PM response profiles (FIG. 9): cluster

## CN[C@H](CC(C)C)C(=O)N[C@H]1C(=O)N[C@@H](CC(N)=O)C(=O)N[C@H]2C(=O)N[C@H]3C(=O)N[C@H](C(=O)N[C@H](C(=O)O)c4cc(O)cc(O)c4-c4cc3ccc4O)[C@H](O)c3ccc(c(Cl)c3)Oc3cc2cc(c3O[C@@H]2O[C@H](CO)[C@@H](O)[C@H](O)[C@H]2O[C@H]2C[C@](C)(N)[C@H](O)[C@H](C)O2)Oc2ccc(cc2Cl)[C@H]1O [vancomycin]
E. coli (MG1655)
  change of sensitivity to the panel compound: transient increased sensitivity
[6]
  minimum inhibitory concentration [MIC]: 8 to 16 µg/mL

## insulin
A549 cells
  effect on glucose depletion (dye reduction): insulin dependent depletion of a glucose substrate
